Patent US20160201067A1, “Composition for Enhancing Transgene Expression in Eukaryotic Cells and Method for Enhancing Production of a Target Protein Encoded by a Transgene” (SILEZIA GROUP PTE. LTD, priority 2013, published 2016)

Legend:
[1] = system: mouse peritoneal macrophages transduced with Ad-GFP; assay: Enhancement of GFP expression in peritoneal macrophages transduced with Ad-GFP, PRR agonists (Example 4); assay type: cell-based; conditions: Ad-GFP 2 × 10^7 PFU/ml, 4 days
Experimental: Mouse peritoneal macrophages (BALB/c female mice, Stolbovaya breeding nursery) were washed with physiological saline solution, pelleted by centrifugation at 1200 rpm for 10 min, suspended in the complete cell culture medium (CCM, consisting of RPMI-1640 medium supplemented with 10% fetal calf serum, 2 mM L-glutamine, 50 μM of (3-mercaptoethanol, and 10 μg/ml of gentamycin) at a concentration of one million cells per 1 ml, and incubated over night in 90 mm Petri dishes at 37° C. and 5% CO2. On the next day, nonadherent cells were removed by washing with warm phosphate buffered saline (PBS, pH 7.4), and adherent cells were covered with Versene solution, kept at 4° C. for 60 min in a refrigerator, and then detached from the culture dish by washing with Versene solution using 5 ml pipette. […] Cell cultures were incubated for 4 days at 37° C. and 5% CO2.
Confocal microscopy images (FIG. 3A) show macrophages transduced with Ad-GFP and additionally activated by TLR4 agonist (10 μg/ml of APG, right image), as compared to control macrophages transduced with Ad-GFP without addition of APG (left image). […] The quantitative assay of GFP production was carried out using flow cytometry which determined both the absolute number of cells containing GFP and the GFP content in each cell by measuring fluorescence intensity of a single cell. The product of the number of fluorescent cells and the fluorescence intensity of each cell is proportional to the number of synthesized GFP molecules.
As is described earlier, peritoneal macrophages were transduced with Ad-GFP (2×10^7 PFU/ml) in the absence or presence of one of the above mentioned PRR agonists. Cell cultures were incubated at 37° C. and 5% CO2 for four days. After the end of incubation, cells were detached by washing with a cold Versene solution, and the percentage and absolute number of cells having green fluorescence and the intensity of cell fluorescence were determined using a FACSAria II flow cytometer. The absolute count of cells was normalized by calibration beads containing a known concentration of microspheres (CountBright Invitrogen), and discrimination between live and dead cells was carried out using a DNA-specific dye DAPI. Typical histograms of GFP fluorescence signal after the transduction of macrophages by Ad-GFP without additional activation of cells (FIG. 3D) or with additional activation of cells with CL097, the agonist of TLR7 and TLR8 (FIG. 3E), are shown.
The quantitative assessment of the enhancement of target GFP expression was performed by the formula:
K=MFI×N/MFIcontr×Ncontr, (1)
K is the enhancement (fold increase) of GFP expression;
MFI is the mean intensity of fluorescence of cells transduced with Ad-GFP with additional activation by an agonist;
MFIcontr is the mean intensity of fluorescence of cells transduced with Ad-GFP (control) without additional activation;
N is the number of fluorescent cells after the transduction with Ad-GFP with additional activation by an agonist; and
Ncontr is the number of fluorescent cells (control) after the transduction with Ad-GFP without additional activation.

[2] = system: mouse peritoneal macrophages; assay: Enhancement of transgenic SEAP expression in peritoneal macrophages (Example 6); conditions: TNF-α 10 ng/ml or APG 10 μg/ml vs Ad-SEAP alone
Experimental: A test liquid was clarified by centrifugation at 14,000 g for 2 min, warmed-up at 65° C. for 5 min to inhibit endogenous phosphatases, then 20 μl aliquots were transferred into each well of a 96-well plate to 130 μl of reaction buffer (0.5 M NaHCO3, 0.5 MM MgCl2, pH 9.8), and incubated at 37° C. for 10 min. Then 50 μl of 60 μM p-nitrophenyl phosphate in reaction buffer were added, and the optical density was measured at 405 nm at fixed intervals. The SEAP activity was expressed in mU/ml, considering 1 mU/ml corresponds to an increase in optical density of 0.04 U per 1 min.
Mouse peritoneal macrophages were obtained and incubated as described in the example 4. Cells were incubated in triplet culture wells with addition of Ad-GFP at 2×10^7 PFU per well in combination with TNF-α (10 ng/ml) or APG (Russian Patent no. 2195308, 10 μg/ml). In the negative control cultures, macrophages were transduced with Ad-SEAP (2×10^7 PFU) without any cell activating compound. After 4 days, the activity of SEAP was measured in the culture medium, as described in the example 2.

In the case of `CCOCc1nc2c([nH]1)c(N)nc1ccccc12` [CL097], the “Fold increase in the expression of GFP, calculated according to the formula (1), Mean” value ([1]; agonist 2.5 μg/ml) was 14.2.
`CC(C)Cn1cnc2c(N)nc3ccccc3c21` [Imiquimod, imiquimod] was tested, and the “Fold increase in the expression of GFP, calculated according to the formula (1), Mean” value ([1]; agonist 10 μg/ml) was 2.03.
Flagellin was tested, and the “Fold increase in the expression of GFP, calculated according to the formula (1), Mean” value ([1]; agonist 1 μg/ml) was 2.13.
In the case of “Lauroyl-g-D-Glu-D-mDAP and Lauroyl-g-D-Glu-L-mDAP [C12-iE-DAP]”, the “Fold increase in the expression of GFP, calculated according to the formula (1), Mean” value ([1]; agonist 20 μg/ml) was 3.1.
For ODN 1826, the “Fold increase in the expression of GFP, calculated according to the formula (1), Mean” value ([1]; agonist 0.6 μg/ml) was 1.43.
In the case of TNF-α, the “Enhancement coefficient (SEAP expression in peritoneal macrophages)” value [2] was 1.8.
In the case of lipoteichoic acid [LTA], the “Fold increase in the expression of GFP, calculated according to the formula (1), Mean” value ([1]; agonist 10 μg/ml) was 2.10.
